# Laboratory results reported in patent US12090164B2, “Genotype-agnostic rescue of cystic fibrosis with small molecule bicarbonate channels” (The Board of Trustees of the University of Illinois, priority 2017, dated 2024).
# “Also recorded” adds a separate entry of the source.
# Experiments:
# CuFi-1 epithelia = assay: ASL height by confocal microscopy; assay type: cell-based, human
# Procedure: ASL height was studied using an established fluorescent dye assay (60, 61). Small diameter NuLi and CuFi-1 cultured epithelia were used for this experiment (0.33 cm^2). 24 hours prior to the start of experiment, the apical side of all cultured epithelia was rinsed three times with warm PBS to remove excess mucus. NuLi epithelia were treated with perfluorocarbon (FC-72) vehicle or 500 µM basolateral bumetanide in DMSO vehicle applied to the media, and CuFi epithelia were treated with 20 μL vehicle, 0.005, 0.5, or 50 μM AmB, or 0.5 μM C35deOAmB suspended in perfluorocarbon (FC-72, Sigma), with or without 500 μM basolateral bumetanide in DMSO vehicle applied to the media and incubated for 24 hours at 37° C. After 24 hours, 2.5 μL of a 2 mg/mL 70 kDa Texas Red-dextran conjugate (Molecular Probes) solution in PBS was added to the apical side of the epithelia, followed by 100 μL of FC-770 to prevent evaporation. Then the culture support was placed on top of 100 μL of PBS on a 10 mm glass bottom Fluorodish for imaging (World Precision Instruments). Epithelia were imaged immediately after dye addition and again at 24 hours to examine dye absorption. Three Z-stack images per membrane were taken on an Zeiss LSM700 confocal microscope at 40× oil immersion. These images were analyzed using ImageJ (62) to determine the average ASL height in the center 1300 pixels of each image. Images were smoothed, converted to 8-bit, and thresholded to most accurately represent the red area. The parameters for Analyze Particles were particles from 1-Infinity μm^2 in size and from 0%-100% circularity. Height was determined by dividing the area output in pixels by the known 1300 pixel width and converted to microns using the known scaling factor of 0.49 µm/pixel.
# [1] = test system: CuFi-1 (ΔF508/ΔF508) epithelia; assay: Ussing chamber short-circuit current response to CFTR activation; assay type: cell-based, human; details: AmB 2 μM, 48 h
# Procedure: To assess the presence of membrane-expressed CFTR, differentiated cultures of NuLi and CuFi-1 epithelia grown on Corning Costar 0.4 μm 24-well plate Transwell Clear Polyester Membrane inserts were used. NuLi and CuFi-1 epithelia were treated with 20 μL of perfluorocarbon (FC-72, Sigma) vehicle or 2 μM amphotericin B (AmB) sonicated into a suspension in FC-72. After 48 hours of incubation, the epithelia were mounted in a dual-channel Ussing chamber (Warner U2500) using the culture cup insert for Transwell adapter, 6.5 mm (Warner U9924T-06) and bathed on both the apical and basolateral sides with a HCO3^− solution (120 mM NaCl, 25 mM NaHCO3, 5 mM KCl, 2 mM CaC2, 1.2 mM MgC2, 13.75 mM NaH2PO4, pH 7.0) at 37° C. and gassed with compressed air. Dextrose was added to this solution immediately prior to experiments to a final concentration of 5.6 mM. Epithelial sodium channel (ENaC) and calcium-activated chloride channel (CaCC) were inhibited by apical addition of 1 μM amiloride and 1 μM DIDS (4,4′-disothiocyanostilbene-2,2′-disulfonic acid), respectively, to achieve a baseline for permeabilization. 10 μM forskolin/100 μM IBMX (3-isobutyl-1-methylxanthine) added apically was used to activate CFTR, and 1 μM CFTRinh-172 was used to inhibit CFTR. Each successive addition of reagent was allowed approximately 10 minutes to equilibrate before the addition of the next reagent (15).
# [2] = test system: CuFi-1 (ΔF508/ΔF508) epithelia; assay: Basolateral to apical H14CO3- transport; assay type: cell-based, human; details: AmB 2 μM basolateral
# [3] = test system: CuFi-1 epithelial monolayers; assay: pH-stat titration of apical alkalinization; assay type: cell-based, human; details: AmB 0.5, 1, 2 μM
# Procedure: Large diameter NuLi and CuFi-1 cultured epithelia were used for this experiment (4.67 cm^2). These cultures were mounted in a dual-channel Ussing chamber (Warner U2500) using the culture cup insert for Transwell adapter, 24 mm (U9924T-24). The membranes were bathed at 37° C. on the apical side with a buffer-free solution (140 mM NaCl, 2 mM KCl, 2 mM CaCl2), and 1 mM MgCl2, 15 mM dextrose, gassed with air) and on the basolateral side with either a HCO3^− buffer (120 mM NaCl, 25 mM NaHCO3, 5 mM KCl, 2 mM CaC2, 1.2 mM MgCl2, 13.75 NaH2PO4, 5.6 mM dextrose, pH adjusted to 7.0) or a HCO3^−-free buffer (140 mM NaCl, 2 mM KCl, 2 mM CaCl2), 1 mM MgCl2, 10 mM HEPES, 5 mM dextrose, pH adjusted to 7.0). A microdiameter pH electrode (89231-590) and temperature probe (Radiometer Analytical T201 Temperature Sensor, E51M001) and titration burette attached to a Hach TIM856 NB pH/EP/Stat pH-STAT Titrator (R41T028) were inserted into the apical chamber. The basolateral chamber was covered with the chamber lid to prevent gas exchange. […]
# The apical pH was titrated to a target pH of 6.0 using 1 mM HCl as titrant (min speed 0.25 mL/min, max speed 0.35 mL/min) (28, 57-59). Acid titration was measured over 20 minutes to establish a baseline value for the cultured epithelia […]. […] Acid titration was then measured over another 20 minutes to evaluate AmB-mediated pH change in the apical solution. […]
# [4] = test system: protein ion channel-deficient yeast; details: cited from earlier work
# [5] = test system: CuFi-1 (ΔF508/ΔF508) airway epithelia; assay: Ussing chamber permeabilization of differentiated CF airway epithelia; assay type: cell-based, human; details: differentiated CuFi-1 epithelia
# Procedure: A series of natural products and synthetic compounds reported previously to permeabilize liposomes, cells, and/or nasal epithelia of mice to anions (11-14) were tested using an Ussing chamber and differentiated cultures of airway epithelia derived from an immortalized airway epithelial cell line from a CF patient having the most common ΔF508/ΔF508 genotype (CuFi-1) (15). […] The capacity for AmB and C35deOAmB to transport bicarbonate across cholesterol-containing POPC liposomes was tested using an adapted ^13C NMR-based assay (18).
smiles,measurement,setting,value
"C[C@@H]1[C@H](O)[C@@H](C)/C=C/C=C/C=C/C=C/C=C/C=C/C=C/[C@H](O[C@@H]2O[C@H](C)[C@@H](O)[C@H](N)[C@@H]2O)C[C@@H]2O[C@](O)(C[C@@H](O)C[C@@H](O)[C@H](O)CC[C@@H](O)C[C@@H](O)CC(=O)O[C@H]1C)C[C@H](O)[C@H]2C(=O)O [AmB, amphotericin B]","ASL height, basolateral AmB",CuFi-1 epithelia,did not increase ASL height
same,"ASL height, apical addition",CuFi-1 epithelia; 0.5 μM,increased ASL height in CuFi-1 epithelia to match that of NuLi epithelia; also recorded: increases ASL height
same,short circuit current response to forskolin/IBMX of AmB-treated epithelia,[1],did not show an increase in short circuit current in response to forskolin/IBMX; also recorded: did not respond to chemical activation of CFTR
same,"basolateral to apical H^14CO3^− transport, basolateral addition of AmB",[2],did not; also recorded: caused no increase ASL ^14C bicarbonate; also recorded: did not raise ASL pH or increase H^14CO3^− secretion
same,"rate of apical alkalinization, bicarbonate free basolateral buffer",[3]; HCO3−-free buffer,no change in rate of apical alkalinization was observed with any tested concentration of AmB; also recorded: not in the absence of basolateral bicarbonate
same,"rate of apical chamber alkalinization, basolateral bicarbonate present",[3]; basolateral bicarbonate 25 mM,increased the rate of apical chamber alkalization of CuFi-1 epithelia in a dose-dependent fashion; also recorded: dose-dependent increase in ASL pH
same,range of doses for which yeast growth rescue is observed,[4]; AmB pre-complexed with ergosterol,extended by more than an order of magnitude
same,yeast growth rescue,[4],can restore growth in protein ion channel-deficient yeast; also recorded: restores potassium transport and thus growth in yeast missing the potassium-selective Trk transporters
same,change in short circuit current / permeabilization of epithelia,[5],exceptionally effective in causing a change in short circuit current
